Data published in ChEMBL document CHEMBL5518248, “Design, Synthesis, and Biological Evaluation of Novel Arylomycins against Multidrug-Resistant Gram-Negative Bacteria” (J Med Chem, 2024).

Tests used:
Type in all cases: functional
Conditions in all cases: time 18-20 hrs
Escherichia coli [1] = test: Antibacterial activity against Escherichia coli ATCC 35218 assessed as inhibition of bacterial growth measured after 18 to 20 hrs by broth microdilution method
Escherichia coli [2] = test: Antibacterial activity against Escherichia coli 14-2 assessed as inhibition of bacterial growth measured after 18 to 20 hrs by broth microdilution method
Escherichia coli [3] = test: Antibacterial activity against Escherichia coli 14-4 assessed as inhibition of bacterial growth measured after 18 to 20 hrs by broth microdilution method
Klebsiella pneumoniae [4] = test: Antibacterial activity against Klebsiella pneumoniae 15-1 assessed as inhibition of bacterial growth measured after 18 to 20 hrs by broth microdilution method
Klebsiella pneumoniae [5] = test: Antibacterial activity against Klebsiella pneumoniae 15-4 assessed as inhibition of bacterial growth measured after 18 to 20 hrs by broth microdilution method
Klebsiella pneumoniae [6] = test: Antibacterial activity against Klebsiella pneumoniae 15-5 assessed as inhibition of bacterial growth measured after 18 to 20 hrs by broth microdilution method
Acinetobacter baumannii [7] = test: Antibacterial activity against Acinetobacter baumannii 17-2 assessed as inhibition of bacterial growth measured after 18 to 20 hrs by broth microdilution method
Acinetobacter baumannii [8] = test: Antibacterial activity against Acinetobacter baumannii 17-8 assessed as inhibition of bacterial growth measured after 18 to 20 hrs by broth microdilution method
Pseudomonas aeruginosa [9] = test: Antibacterial activity against Pseudomonas aeruginosa 17-1 assessed as inhibition of bacterial growth measured after 18 to 20 hrs by broth microdilution method
Pseudomonas aeruginosa [10] = test: Antibacterial activity against Pseudomonas aeruginosa 19-5 assessed as inhibition of bacterial growth measured after 18 to 20 hrs by broth microdilution method

| SMILES | MIC (Escherichia coli [1]) [µg/mL] | MIC (Escherichia coli [2]) [µg/mL] | MIC (Escherichia coli [3]) [µg/mL] | MIC (Klebsiella pneumoniae [4]) [µg/mL] | MIC (Klebsiella pneumoniae [5]) [µg/mL] | MIC (Klebsiella pneumoniae [6]) [µg/mL] | MIC (Acinetobacter baumannii [7]) [µg/mL] | MIC (Acinetobacter baumannii [8]) [µg/mL] | MIC (Pseudomonas aeruginosa [9]) [µg/mL] | MIC (Pseudomonas aeruginosa [10]) [µg/mL] |
| --- | --- | --- | --- | --- | --- | --- | --- | --- | --- | --- |
| Cc1nc(-c2ccc(CSSC(C)(C)C)c(F)c2)ncc1C(=O)N[C@@H](CCN)C(=O)N(C)[C@@H]1C(=O)N[C@@H](C)C(=O)N[C@H](C(=O)NCC#N)Cc2ccc(OCCN)c(c2)-c2cc1ccc2OCCN.O=C(O)C(F)(F)F.O=C(O)C(F)(F)F.O=C(O)C(F)(F)F.O=C(O)C(F)(F)F | 0.06 | 0.125 | 0.125 | 0.25 | 0.25 | 0.25 | 1 | 1 | 4 | 4 |
| Cc1nc(C2CCC3(CC2)CC3)ncc1C(=O)N[C@@H](CCN)C(=O)N(C)[C@@H]1C(=O)N[C@@H](C)C(=O)N[C@H](C(=O)NCC#N)Cc2ccc(OCCN)c(c2)-c2cc1ccc2OCCN.O=C(O)C(F)(F)F.O=C(O)C(F)(F)F.O=C(O)C(F)(F)F.O=C(O)C(F)(F)F | 1 | 2 | 1 | 2 | 4 | 2 | 64 | 8 | > 64 | > 64 |
| CSSCc1ccc(-c2ncc(C(=O)N[C@@H](CCN)C(=O)N(C)[C@@H]3C(=O)N[C@@H](C)C(=O)N[C@H](C(=O)NCC#N)Cc4ccc(OCCN)c(c4)-c4cc3ccc4OCCN)c(C)n2)cc1.O=C(O)C(F)(F)F.O=C(O)C(F)(F)F.O=C(O)C(F)(F)F.O=C(O)C(F)(F)F | 0.06 | 0.25 | 0.5 | 0.25 | 0.5 | 0.5 | 4 | 1 | 64 | 64 |
| COCCSSCc1ccc(-c2ncc(C(=O)N[C@@H](CCN)C(=O)N(C)[C@@H]3C(=O)N[C@@H](C)C(=O)N[C@H](C(=O)NCC#N)Cc4ccc(OCCN)c(c4)-c4cc3ccc4OCCN)c(C)n2)cc1.O=C(O)C(F)(F)F.O=C(O)C(F)(F)F.O=C(O)C(F)(F)F.O=C(O)C(F)(F)F | 0.25 | 0.5 | 0.5 | 1 | 2 | 1 | 8 | 2 | > 64 | > 64 |
| Cc1nc(-c2ccc(C(C)(C)C)cc2)ncc1C(=O)N[C@@H](CCN)C(=O)N(C)[C@@H]1C(=O)N[C@@H](C)C(=O)N[C@H](C(=O)NNCC#N)Cc2ccc(OCCN)c(c2)-c2cc1ccc2OCCN.Cl.Cl.Cl.Cl | 0.5 | 1 | 0.5 | 2 | 2 | 1 | 32 | 8 | > 64 | > 64 |
| CSC(=O)CNC(=O)[C@@H]1Cc2ccc(OCCN)c(c2)-c2cc(ccc2OCCN)[C@H](N(C)C(=O)[C@H](CCN)NC(=O)c2cnc(-c3ccc(C(C)(C)C)cc3)nc2C)C(=O)N[C@@H](C)C(=O)N1.O=C(O)C(F)(F)F.O=C(O)C(F)(F)F.O=C(O)C(F)(F)F.O=C(O)C(F)(F)F | 0.5 | 4 | 1 | 0.25 | 1 | 0.5 | 64 | 16 | 64 | 64 |
| Cc1nc(-c2ccc(C(C)(C)C)cc2)ncc1NC(=O)N[C@@H](CCN)C(=O)N(C)[C@@H]1C(=O)N[C@@H](C)C(=O)N[C@H](C(=O)NCC#N)Cc2ccc(OCCN)c(c2)-c2cc1ccc2OCCN.O=C(O)C(F)(F)F.O=C(O)C(F)(F)F.O=C(O)C(F)(F)F.O=C(O)C(F)(F)F | 4 | 16 | 8 | 16 | 32 | 16 | 32 | 8 | > 64 | > 64 |
| Cc1nc(-c2ccc(C(C)(C)C)cc2)ncc1C(=O)N[C@@H](CCN)C(=O)N(C)[C@@H]1C(=O)N[C@@H](C)C(=O)N[C@H](C(=O)OCC#N)Cc2ccc(OCCN)c(c2)-c2cc1ccc2OCCN.O=C(O)C(F)(F)F.O=C(O)C(F)(F)F.O=C(O)C(F)(F)F.O=C(O)C(F)(F)F | 0.06 | 0.125 | 0.25 | 0.125 | 0.25 | 0.25 | 8 | 4 | > 64 | > 64 |
| Cc1nc(-c2ccc(C(C)(C)C)cc2)ncc1C(=O)N[C@@H](CCN)C(=O)N(C)[C@@H]1C(=O)N[C@@H](C)C(=O)N[C@H](C(=O)O)Cc2ccc(OCCN)c(c2)-c2cc1ccc2OCCN.O=C(O)C(F)(F)F.O=C(O)C(F)(F)F.O=C(O)C(F)(F)F.O=C(O)C(F)(F)F | 0.06 | 0.125 | 0.5 | 0.06 | 0.25 | 0.125 | 8 | 1 | > 64 | > 64 |
| Cc1nc(-c2ccc(CSSC3CCCCC3)cc2)ncc1C(=O)N[C@@H](CCN)C(=O)N(C)[C@@H]1C(=O)N[C@@H](C)C(=O)N[C@H](C(=O)NCC#N)Cc2ccc(OCCN)c(c2)-c2cc1ccc2OCCN.O=C(O)C(F)(F)F.O=C(O)C(F)(F)F.O=C(O)C(F)(F)F.O=C(O)C(F)(F)F | ≤ 0.03 | ≤ 0.03 | 0.125 | 0.5 | 0.25 | 0.25 | 1 | 0.5 | 4 | 4 |
| Cc1nc(-c2ccc(C(C)(C)C)cc2)ncc1CC(=O)N[C@@H](CCN)C(=O)N(C)[C@@H]1C(=O)N[C@@H](C)C(=O)N[C@H](C(=O)NCC#N)Cc2ccc(OCCN)c(c2)-c2cc1ccc2OCCN.O=C(O)C(F)(F)F.O=C(O)C(F)(F)F.O=C(O)C(F)(F)F.O=C(O)C(F)(F)F | 16 | 16 | 16 | > 64 | > 64 | > 64 | 64 | 8 | > 64 | > 64 |

The next lines start with the values.

| MIC (Escherichia coli [1]) [µg/mL] | MIC (Escherichia coli [2]) [µg/mL] | MIC (Escherichia coli [3]) [µg/mL] | MIC (Klebsiella pneumoniae [4]) [µg/mL] | MIC (Klebsiella pneumoniae [5]) [µg/mL] | MIC (Klebsiella pneumoniae [6]) [µg/mL] | MIC (Acinetobacter baumannii [7]) [µg/mL] | MIC (Acinetobacter baumannii [8]) [µg/mL] | MIC (Pseudomonas aeruginosa [9]) [µg/mL] | MIC (Pseudomonas aeruginosa [10]) [µg/mL] | SMILES |
| --- | --- | --- | --- | --- | --- | --- | --- | --- | --- | --- |
| ≤ 0.03 | 0.125 | 0.125 | 0.125 | 0.25 | 0.25 | 1 | 0.5 | 8 | 4 | Cc1nc(-c2ccc(CSSC3CCC3)cc2)ncc1C(=O)N[C@@H](CCN)C(=O)N(C)[C@@H]1C(=O)N[C@@H](C)C(=O)N[C@H](C(=O)NCC#N)Cc2ccc(OCCN)c(c2)-c2cc1ccc2OCCN.O=C(O)C(F)(F)F.O=C(O)C(F)(F)F.O=C(O)C(F)(F)F.O=C(O)C(F)(F)F |
| ≤ 0.03 | ≤ 0.03 | ≤ 0.03 | 0.125 | 0.125 | 0.125 | 0.25 | 0.25 | 4 | 1 | Cc1nc(-c2ccc([C@H](C)SSC(C)(C)C)cc2)ncc1C(=O)N[C@@H](CCN)C(=O)N(C)[C@@H]1C(=O)N[C@@H](C)C(=O)N[C@H](C(=O)NCC#N)Cc2ccc(OCCN)c(c2)-c2cc1ccc2OCCN.O=C(O)C(F)(F)F.O=C(O)C(F)(F)F.O=C(O)C(F)(F)F.O=C(O)C(F)(F)F |
| ≤ 0.03 | 0.25 | 0.125 | 0.25 | 0.5 | 0.125 | 1 | 1 | 8 | 8 | C[C@@H]1NC(=O)[C@@H](N(C)C(=O)[C@H](CCN)NC(=O)c2cnc(-c3ccc(CSSC(C)(C)C)cc3)cc2Cl)c2ccc(OCCN)c(c2)-c2cc(ccc2OCCN)C[C@@H](C(=O)NCC#N)NC1=O.O=C(O)C(F)(F)F.O=C(O)C(F)(F)F.O=C(O)C(F)(F)F.O=C(O)C(F)(F)F |
| ≤ 0.03 | 0.06 | 0.125 | 0.25 | 0.25 | 0.125 | 0.5 | 0.25 | 2 | 4 | CCCCSSc1ccc(-c2ncc(C(=O)N[C@@H](CCN)C(=O)N(C)[C@@H]3C(=O)N[C@@H](C)C(=O)N[C@H](C(=O)NCC#N)Cc4ccc(OCCN)c(c4)-c4cc3ccc4OCCN)c(C)n2)cc1.O=C(O)C(F)(F)F.O=C(O)C(F)(F)F.O=C(O)C(F)(F)F.O=C(O)C(F)(F)F |
| ≤ 0.03 | 0.06 | 0.06 | 0.06 | 0.125 | 0.06 | 0.5 | 0.125 | 2 | 4 | Cc1nc(-c2ccc(CSSC(C)C)cc2)ncc1C(=O)N[C@@H](CCN)C(=O)N(C)[C@@H]1C(=O)N[C@@H](C)C(=O)N[C@H](C(=O)NCC#N)Cc2ccc(OCCN)c(c2)-c2cc1ccc2OCCN.O=C(O)C(F)(F)F.O=C(O)C(F)(F)F.O=C(O)C(F)(F)F.O=C(O)C(F)(F)F |
| ≤ 0.03 | ≤ 0.03 | 0.06 | ≤ 0.03 | 0.25 | ≤ 0.03 | 4 | 2 | > 64 | > 64 | CSSC(C)(C)c1ccc(-c2ncc(C(=O)N[C@@H](CCN)C(=O)N(C)[C@@H]3C(=O)N[C@@H](C)C(=O)N[C@H](C(=O)O)Cc4ccc(OCCN)c(c4)-c4cc3ccc4OCCN)c(C)n2)cc1.O=C(O)C(F)(F)F.O=C(O)C(F)(F)F.O=C(O)C(F)(F)F.O=C(O)C(F)(F)F |
